According to US9682960B2 (priority 2013, dated 2017):
Where “and” joins values, the source holds several entries; their conditions need not be identical. Identical values can stand only once. Entries after “also recorded” stand apart in the source; their conditions may differ. Like-named read-outs stand apart in the source and are kept apart here.

Key:
[1] = molecular target: Rat Androgen Receptor (Rattus norvegicus (Rat), UniProt P15207); assay: Androgen receptor assay: [3H]R1881 displacement, rat prostate cytosol; assay type: binding; settings: for times more potent than OH-flutamide in the rat AR assay: versus OH-flutamide; for times more potent than bicalutamide in the rat AR assay: versus bicalutamide
Rat Androgen Receptor, sequence (P15207 whole entry, looked up): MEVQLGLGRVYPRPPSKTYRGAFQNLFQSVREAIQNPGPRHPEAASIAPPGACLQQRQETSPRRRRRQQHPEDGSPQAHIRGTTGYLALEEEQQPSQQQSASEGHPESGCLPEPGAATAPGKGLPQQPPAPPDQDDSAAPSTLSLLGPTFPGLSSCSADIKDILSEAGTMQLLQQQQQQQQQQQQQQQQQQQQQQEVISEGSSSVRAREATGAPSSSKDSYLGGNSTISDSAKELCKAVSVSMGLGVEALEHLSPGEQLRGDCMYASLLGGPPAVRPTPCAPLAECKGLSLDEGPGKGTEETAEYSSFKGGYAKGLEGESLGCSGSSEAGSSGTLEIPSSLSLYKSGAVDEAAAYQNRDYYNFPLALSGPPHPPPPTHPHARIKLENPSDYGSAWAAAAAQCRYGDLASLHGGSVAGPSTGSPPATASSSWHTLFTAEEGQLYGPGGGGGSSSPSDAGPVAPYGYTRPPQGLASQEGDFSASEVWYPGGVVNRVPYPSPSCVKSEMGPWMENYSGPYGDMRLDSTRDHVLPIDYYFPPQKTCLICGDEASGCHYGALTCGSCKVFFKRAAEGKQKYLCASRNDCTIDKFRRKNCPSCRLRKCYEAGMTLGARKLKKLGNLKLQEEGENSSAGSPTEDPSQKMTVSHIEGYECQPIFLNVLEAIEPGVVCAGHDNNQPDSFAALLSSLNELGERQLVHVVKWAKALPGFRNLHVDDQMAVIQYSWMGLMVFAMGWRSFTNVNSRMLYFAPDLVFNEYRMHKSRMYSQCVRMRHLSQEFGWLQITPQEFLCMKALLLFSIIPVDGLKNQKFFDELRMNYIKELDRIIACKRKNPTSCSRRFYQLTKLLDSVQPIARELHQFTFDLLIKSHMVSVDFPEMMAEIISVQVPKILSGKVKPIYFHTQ
Experimental: On the morning of the binding assay, ventral prostates collected from 24 h-gonadectomized rats were homogenized in buffer A (1 g of tissue in 5 mL) and the homogenate was centrifuged as described above.
Androgen binding is measured using the hydroxylapatite (HAP) assay. In brief, the radioactive steroid [^3H]R1881 solubilized in ethanol is diluted with buffer B (10 mM Tris-HCl, 1.5 mM EDTA disodium salt, 10 mM α-monothioglycerol, pH 7.4). Aliquots of the cell or prostate cytosol preparation (0.1 ml) are then incubated with 5 nM [^3H]R1881 (0.1 ml, ˜100 000 cpm) in the presence or absence of the indicated concentrations of unlabeled compounds (0.1 ml, prepared in buffer B containing 30% ethanol) for 16-18 h at 0-4° C. Triamcinolone acetonide (TAC; 100 nM) is added to mask progesterone receptors. Unbound steroids are separated by incubation for 40 min at 0-4° C. with 0.3 ml HAP prepared in buffer P (50 mM Tris-HCl, 10 mM KH2PO4, pH 7.4). After incubation with HAP and 10 min of centrifugation at 1000×g, the pellet is washed 3 times with 1 ml of buffer P. Thereafter, the radioactivity is extracted from the pellet by incubation at room temperature for 60 min with 1 ml of ethanol. After centrifugation, the supernatant is decanted into a scintillation vial and the pellet is extracted again with ethanol. After the addition of scintillation liquid, the radioactivity is measured in a liquid scintillation counter.
Relative binding affinity (RBA) was calculated by the following formula: RBA (%) [IC50(R1881)/IC50 (compound)]×100 B—In Vitro Assay of Androgenic/Antiandrogenic Activity

[2] = system: Shionogi mouse mammary carcinoma cells; assay: In vitro androgenic/antiandrogenic activity: proliferation of Shionogi cells with or without DHT; assay type: cell-based; settings: for stimulation at 10^−7M on basal Shionogi cell proliferation (in words): basal (no DHT)
[3] = system: PSA levels in human prostatic carcinoma LNCaP cells; assay: Prostate specific antigen (PSA) in LNCaP cells with or without R1881; assay type: cell-based; settings: for inhibition at 0.1 µM: Homo sapiens, read-out: LNCaP Cells Antiandrogenic activity (PSA) % inhibition at 10^−7M, R1881-stimulated, 10^−7M of compound; for inhibition at 0.1 µM / times more potent than bicalutamide in blocking R1881-stimulated PSA secretion: LNCaP; for times more potent than bicalutamide in blocking R1881-stimulated PSA secretion: versus bicalutamide; for stimulation at 10^−7M of basal PSA levels in LNCaP cells (in words): basal (no R1881)
Experimental: LNCaP cells were cultured as previously described (Qi et al. 2001). In brief, the LNCaP cells were cultured for 6 days in 1.0 ml RPMI 1640 supplemented with hormone-depleted 0.25% FCS before each experiment. At the start of the experiment, half of the medium (0.5 ml) was replaced with 0.5 ml of identical medium containing the appropriate concentrations of tested compounds, in the presence or absence of 1.0 nM of R1881. After 72 h of incubation of LNCaP cells with compounds, 0.5 ml of culture medium was removed for PSA determination. PSA levels were measured using the PSA [^125I] IRMA KIT (REF: RK-10CT) from Izotop (Institute of Isotopes Ltd, Budapest, Hungary).

[4] = molecular target: Human Androgen Receptor (Homo sapiens (Human), UniProt P10275); assay: Androgen receptor assay: [3H]R1881 displacement, cytosol of HEK-293 cells transfected with hAR (hydroxylapatite assay); assay type: binding; settings: for times more potent than bicalutamide to displace R1881 from the human AR: versus bicalutamide
Human Androgen Receptor, sequence (P10275 whole entry): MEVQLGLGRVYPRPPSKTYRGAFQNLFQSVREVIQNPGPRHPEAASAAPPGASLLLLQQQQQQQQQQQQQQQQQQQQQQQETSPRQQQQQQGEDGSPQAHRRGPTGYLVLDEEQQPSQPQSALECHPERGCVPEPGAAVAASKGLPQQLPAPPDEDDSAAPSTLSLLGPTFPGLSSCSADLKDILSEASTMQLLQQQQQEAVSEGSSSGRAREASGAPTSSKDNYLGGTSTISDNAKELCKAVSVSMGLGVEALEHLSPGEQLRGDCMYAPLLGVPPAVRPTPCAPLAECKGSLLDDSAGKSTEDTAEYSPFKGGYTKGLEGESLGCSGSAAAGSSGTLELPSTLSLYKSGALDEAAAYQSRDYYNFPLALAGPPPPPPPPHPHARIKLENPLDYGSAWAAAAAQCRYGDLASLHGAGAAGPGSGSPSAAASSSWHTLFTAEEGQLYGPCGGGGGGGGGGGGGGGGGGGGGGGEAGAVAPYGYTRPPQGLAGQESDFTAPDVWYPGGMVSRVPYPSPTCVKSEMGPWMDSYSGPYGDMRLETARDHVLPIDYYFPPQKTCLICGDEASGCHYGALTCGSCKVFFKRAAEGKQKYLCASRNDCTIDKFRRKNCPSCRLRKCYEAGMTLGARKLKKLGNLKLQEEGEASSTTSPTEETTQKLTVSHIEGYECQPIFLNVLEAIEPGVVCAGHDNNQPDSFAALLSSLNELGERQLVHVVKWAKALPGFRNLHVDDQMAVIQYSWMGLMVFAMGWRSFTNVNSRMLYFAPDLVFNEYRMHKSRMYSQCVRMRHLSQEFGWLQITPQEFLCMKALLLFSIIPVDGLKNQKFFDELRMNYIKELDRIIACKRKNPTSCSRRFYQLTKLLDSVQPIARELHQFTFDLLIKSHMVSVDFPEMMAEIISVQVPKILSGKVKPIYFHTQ

[5] = system: Androgen Receptor; assay: Overall classification (antiandrogen / SARM) in the models studied
[6] = Oral absorption, Experiment 2: plasma, intraprostatic and intramuscular concentrations after 0.5 mg EM-9150/animal in castrated male rats; assay type: in vivo; settings: Sprague-Dawley, rat, 0.5 mg/animal; for concentration at 7 h: po
Experimental: Castrated male Sprague-Dawley rats (Crl:CD(SD)Br) weighing 275-375 g were used for pharmacokinetic studies. Animals were fasted (access to water only) from around 16 h00 the afternoon prior to the dosing day.
Blood samples (˜0.5 mL/timepoint) were collected by jugular venipuncture on animals under isoflurane anesthesia at 1, 2, 3, 4, 7 and 24 h post-dosing. Blood samples were put into tubes containing EDTA(K3) as anticoagulant and centrifuged at 4° C. for 10 min at 1700-2400 g. The resulting plasma was frozen on dry ice and kept at −80° C. pending analysis. […] Prostates and bulbocavernosus muscles were frozen in liquid nitrogen and kept at −80° C. until being used. A buffer and an ethanol-acetone solution were added to the tissue and homogenized with a Polytron. The supernatant was collected, evaporated to dryness and reconstituted in buffer.
Intraprostatic and intramuscular concentrations of the compounds were also determined by LC-MS/MS.

[7] = system: castrated (CX) immature male rats; assay: Systemic androgenic (agonistic) activity in orchidectomized (CX) immature male rats; assay type: in vivo, rat; settings: for CX Agonistic activity % Stimulation Bulbo / CX Agonistic activity % Stimulation SV / CX Agonistic activity % Stimulation Prostate: 0.1 mg/rat/po, 7 days; for CX Agonistic activity % Stimulation Bulbo: bulbocavernosus muscles weight; for CX Agonistic activity % Stimulation SV: seminal vesicles weight; for CX Agonistic activity % Stimulation Prostate: ventral prostate weight; for agonistic activity on ventral prostate weight (in words): daily oral dosing for 7 days, immature castrated rat
[8] = relative binding affinity, R1881 = 100, prostate cytosol
[9] = bulbocavernosus muscles, read-out: intramuscular concentration
[10] = plasma, read-out: plasma concentration
[11] = ventral prostate, read-out: intraprostatic concentration

## CC(C)NCc1ccc(OCCCN2C(=S)N(c3ccc(C#N)c(C(F)(F)F)c3)C(=O)C2(C)C)cc1 [EM-7105, reference compound]
[1]; [8]
  Rat Androgen Receptor Binding RBA (%) R1881 = 100: 3.9%
[2]; DHT (0.3 nM)-stimulated cell number, read-out: Shionogi Antiandrogenic Activity IC50
  IC50: 9.4 nM
[3]; R1881-stimulated, 10^−7M of compound
  LNCaP Cells Antiandrogenic activity (PSA) % inhibition at 10^−7M: 26%
[4]; relative binding affinity, R1881 = 100, transfected cells
  Human Androgen Receptor Binding RBA (%) R1881 = 100: 41% and 41 ± 30%
[4]; thiohydantoin versus hydantoin (EM-9052 vs EM-9150; EM-7105 vs EM-7333)
  times more binding to the human androgen receptor than the corresponding hydantoin: around 140 times

## CC1(C)C(=O)N(c2ccc(C#N)c(Cl)c2)C(=O)N1CCCOc1ccc(-c2ccncc2)cc1Cl [EM-9150]
[5]
  classification as antiandrogen or SARM (in words): antiandrogens
[6]; [9]
  concentration at 7 h: 1.2 ng/g
[6]; [10]
  concentration at 7 h: 0.9 ng/mL
[6]; prostate / plasma, oral, read-out: concentration in the rat prostate versus plasma
  Kp at 7 h: ~3
[6]; [11]
  concentration at 7 h: 2.9 ng/g
[1]; [8]
  Rat Androgen Receptor Binding RBA (%) R1881 = 100: 6.5%
[1]
  times more potent than OH-flutamide in the rat AR assay: 65 times
  times more potent than bicalutamide in the rat AR assay: 32 times
[7]
  CX Agonistic activity % Stimulation Bulbo: 1%
  CX Agonistic activity % Stimulation SV: 0%
  CX Agonistic activity % Stimulation Prostate: 0%
  agonistic activity on ventral prostate weight (in words): no agonistic activity
[2]
  stimulation at 10^−7M on basal Shionogi cell proliferation (in words): absence of stimulation
[3]
  inhibition at 0.1 µM: 57%
  times more potent than bicalutamide in blocking R1881-stimulated PSA secretion: 11.0 times and 10 times
  stimulation at 10^−7M of basal PSA levels in LNCaP cells (in words): absence of stimulation; also recorded: no stimulation
[3]; versus thiohydantoins of WO 2006/133567
  times more inhibition of PSA levels in human LNCaP cells compared to the thiohydantoins: ≥ 2 times
[4]
  times more potent than bicalutamide to displace R1881 from the human AR: 247 times

## CC1(C)C(=O)N(c2ccc(C#N)c(Cl)c2)C(=O)N1CCCOc1ccc(-c2cc[n+]([O-])cc2)cc1Cl [EM-9156]
[5]
  classification as antiandrogen or SARM (in words): antiandrogens
[6]; [9]
  concentration at 7 h: 12.7 ng/g
[6]; [10]
  concentration at 7 h: 22.3 ng/mL
[6]; [11]
  concentration at 7 h: 19.3 ng/g
[1]
  Rat Androgen Receptor Binding RBA (%) R1881 = 100: 5.3%
  times more potent than OH-flutamide in the rat AR assay: 53 times
  times more potent than bicalutamide in the rat AR assay: 27 times
[7]
  CX Agonistic activity % Stimulation Bulbo: 5%
  CX Agonistic activity % Stimulation SV: 0%
  CX Agonistic activity % Stimulation Prostate: 1%
  agonistic activity on ventral prostate weight (in words): no agonistic activity
[2]
  stimulation at 10^−7M on basal Shionogi cell proliferation (in words): absence of stimulation
[3]
  inhibition at 0.1 µM: ~50%
  times more potent than bicalutamide in blocking R1881-stimulated PSA secretion: 9.2 times and 10 times
  stimulation at 10^−7M of basal PSA levels in LNCaP cells (in words): absence of stimulation
[4]
  times more potent than bicalutamide to displace R1881 from the human AR: 57 times
